Measured values: US12215093B2, “Bicyclic carboxamides and methods of use thereof” (Tempest Therapeutics, Inc., priority 2018, dated 2025)

Tests used:
[1] = target: EP2 (Homo sapiens, UniProt P43116);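 also: functional calcium flux assay in stably transfected HEK293 cells expressing EP2 coupled via a promiscuous G protein, clytin luminescence read as area under the curve, 30 min compound preincubation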
[2] = target: T1, EP4 (Homo sapiens, UniProt P35408); assay: Functional calcium flux assay, EP4; type: cell-based; conditions: stably transfected HEK293 cells; PGE2 10 nM; read-out: EP4 Ca2+-flux assay IC50
T1 construct: host or cells: stably transfected HEK293 cells co-expressing a promiscuous G protein and a clytin variant
T1 sequence (P35408 whole entry): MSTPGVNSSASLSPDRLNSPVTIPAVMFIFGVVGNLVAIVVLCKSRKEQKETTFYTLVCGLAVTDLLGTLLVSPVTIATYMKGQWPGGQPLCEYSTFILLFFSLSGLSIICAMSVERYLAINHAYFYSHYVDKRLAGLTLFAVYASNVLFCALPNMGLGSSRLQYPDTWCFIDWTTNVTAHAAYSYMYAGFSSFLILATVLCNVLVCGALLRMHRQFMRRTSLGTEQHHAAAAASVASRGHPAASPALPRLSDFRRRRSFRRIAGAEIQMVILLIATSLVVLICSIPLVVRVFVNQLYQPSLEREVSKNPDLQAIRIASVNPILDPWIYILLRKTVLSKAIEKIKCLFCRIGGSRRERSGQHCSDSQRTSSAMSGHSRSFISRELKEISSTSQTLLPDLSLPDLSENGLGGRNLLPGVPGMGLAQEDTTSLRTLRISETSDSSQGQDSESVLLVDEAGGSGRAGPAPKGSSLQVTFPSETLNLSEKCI

Sequence of EP2 (P43116 whole entry): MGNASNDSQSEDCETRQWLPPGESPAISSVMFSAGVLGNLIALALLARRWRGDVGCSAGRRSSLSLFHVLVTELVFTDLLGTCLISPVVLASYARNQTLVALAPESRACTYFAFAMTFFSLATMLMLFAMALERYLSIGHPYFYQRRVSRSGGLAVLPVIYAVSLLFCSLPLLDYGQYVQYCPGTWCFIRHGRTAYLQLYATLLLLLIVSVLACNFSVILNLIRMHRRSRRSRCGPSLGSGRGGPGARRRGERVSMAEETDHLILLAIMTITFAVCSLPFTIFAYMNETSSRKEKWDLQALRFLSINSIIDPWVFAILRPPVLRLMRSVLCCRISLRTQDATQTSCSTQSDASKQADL

Compound	IC50 [1] [nM]	IC50 [2] [nM]
O=C(NC1CC2(C1)CC(C(=O)O)C2)c1ccc(Cl)c2cnn(Cc3ccc(N4CC5CC5(C(F)F)C4)c(F)c3)c12 (racemic) [Example 76, (Sa)-6-(4-chloro-1-(4-((racemic)-1-(difluoromethyl)-3-azabicyclo[3.1.0]hexan-3-yl)-3-fluorobenzy1)-1H-indazole-7-carboxamido)spiro[3.3]heptane-2-carboxylic acid]	56	< 1
CC(c1ccc(N2C[C@H]3C[C@H]3C2)cc1)n1ncc2c(Cl)ccc(C(=O)NC3CC4(C3)CC(C(=O)O)C4)c21 (mixture of isomers) [Example 77, (Sa)-6-(1-((racemic)-1-(4-((1R,5S)-3-azabicyclo[3.1.0]hexan-3-yl)phenyl)ethyl)-4-chloro-1H-indazole-7-carboxamido)spiro[3.3]heptane-2-carboxylic acid]	71	< 1
COc1cccc(-c2ccc(C(C)n3ncc4cccc(C(=O)NC5CC6(C5)CC(C(=O)O)C6)c43)cc2)c1 (racemic) [Example 113, (Sa)-6-(1-((racemic)-1-(3′-methoxy-[1,1′-bipheny]-4-yl)-ethyl)-1H-indazole-7-carboxamido)spiro[3.3]heptane-2-carboxylic acid]	< 25	1.3
COc1cc(C#N)cc(-c2ccc(C(C)n3ncc4cccc(C(=O)NC5CC6(C5)CC(C(=O)O)C6)c43)cc2)c1 (racemic) [Example 114, (Sa)-6-(1-((racemic)-1-(3′-cyano-5′-methoxy-[1,1′-biphenyl]-4-yl)-ethyl)-1H-indazole-7-carboxamido)spiro[3.3]heptane-2-carboxylic acid]	57	5.5
CCOc1cc(-c2ccc(C(C)n3ncc4cccc(C(=O)NC5CC6(C5)CC(C(=O)O)C6)c43)cc2)ccn1 (racemic) [Example 115, (Sa)-6-(1-((racemic)-1-(4-(2-ethoxypyridin-4-yl)phenyl)-ethyl)-1H-indazole-7-carboxamido)spiro[3.3]heptane-2-carboxylic acid]	69	2.9
CC(c1ccc(-c2ccccc2)cc1)n1ccc2c(F)ccc(C(=O)NC3CC4(C3)CC(C(=O)O)C4)c21 (racemic) [Example 116, (S)-6-(1-(racemic)-1-([1,1′-biphenyl]-4-yl)-ethyl)-4-fluoro-1H-indole-7-carboxamido)spiro[3.3]heptane-2-carboxylic acid]	< 25	2.8
COc1cccc(-c2ccc(C(C)n3ccc4c(F)ccc(C(=O)NC5CC6(C5)CC(C(=O)O)C6)c43)cc2)c1 (racemic) [Example 117, (Sa)-6-(4-fluoro-1-((racemic)-1-(3′-methoxy-[1,1′-biphenyl]-4-yl)-ethyl)-1H-indole-7-carboxamido)spiro[3.3]heptane-2-carboxylic acid]	87	14
CCOc1cc(-c2ccc(C(C)n3ccc4c(F)ccc(C(=O)NC5CC6(C5)CC(C(=O)O)C6)c43)cc2)ccn1 (racemic) [Example 118, (Sa)-6-(1-((racemic)-1-(4-(2-ethoxypyridin-4-yl)phenyl)-ethyl)-4-fluoro-1H-indole-7-carboxamido)spiro[3.3]heptane-2-carboxylic acid]	31	2.6
COc1ccc(-c2ccc(C(C)n3ccc4c(F)ccc(C(=O)NC5CC6(C5)CC(C(=O)O)C6)c43)cc2)cn1 (racemic) [Example 119, (Sa)-6-(4-fluoro-1-((racemic)-1-(4-(6-methoxypyridin-3-yl)phenyl)-ethyl)-1H-indole-7-carboxamido)spiro[3.3]heptane-2-carboxylic acid]	59	3.8
COc1ncc(-c2ccc(C(C)n3ccc4c(F)ccc(C(=O)NC5CC6(C5)CC(C(=O)O)C6)c43)cc2)cc1Cl (racemic) [Example 120, (Sa)-6-(1-((racemic)-1-(4-(5-chloro-6-methoxypyridin-3-yl)phenyl)-ethyl)-4-fluoro-1H-indole-7-carboxamido)spiro[3.3]heptane-2-carboxylic acid]	< 25	11
COc1cccc(-c2ccc(C(C)n3ncc4c(Cl)ccc(C(=O)NC5CC6(C5)CC(C(=O)O)C6)c43)cc2)c1 (racemic) [Example 122, (Sa)-6-(4-chloro-1-((racemic)-1-(3′-methoxy-[1,1′-biphenyl]-4-yl)-ethyl)-1H-indazole-7-carboxamido)spiro[3.3]heptane-2-carboxylic acid]	< 25	4.7
COc1cc(C#N)cc(-c2ccc(C(C)n3ncc4c(Cl)ccc(C(=O)NC5CC6(C5)CC(C(=O)O)C6)c43)cc2)c1 (racemic) [Example 123, (Sa)-6-(4-chloro-1-((racemic)-1-(3′-cyano-5′-methoxy-[1,1′-biphenyl]-4-yl)-ethyl)-1H-indazole-7-carboxamido)spiro[3.3]heptane-2-carboxylic acid]	60	12
CCOc1cc(-c2ccc(C(C)n3ncc4c(Cl)ccc(C(=O)NC5CC6(C5)CC(C(=O)O)C6)c43)cc2)ccn1 (racemic) [Example 124, (Sa)-6-(4-chloro-1-((racemic)-1-(4-(2-ethoxypyridin-4-yl)phenyl)-ethyl)-1H-indazole-7-carboxamido)spiro[3.3]heptane-2-carboxylic acid]	< 25	3.9
CCOc1cccc(-c2ccc(C(C)n3ncc4c(Cl)ccc(C(=O)NC5CC6(C5)CC(C(=O)O)C6)c43)cc2)n1 (racemic) [Example 134, (Sa)-6-(4-chloro-1-((racemic)-1-(4-(6-ethoxypyridin-2-yl)phenyl)-ethyl)-1H-indazole-7-carboxamido)spiro[3.3]heptane-2-carboxylic acid]	< 25	1.3
CC(c1ccc(-c2ccccc2)cc1)n1ncc2cc(Cl)cc(C(=O)NC3CC4(C3)CC(C(=O)O)C4)c21 (racemic) [Example 173, (Sa)-6-(1-((racemic)1-([1,1′-Biphenyl]-4-yl)ethyl)-5-chloro-1H-indazole-7-carboxamido)spiro[3.3]heptane-2-carboxylic acid]	< 25	7.2
COc1cc(C#N)cc(-c2ccc(C(C)n3ncc4cccc(C(=O)NC5CC6(C5)CC(C(=O)O)C6)c43)cc2)c1 (single isomer, unassigned) [Example 126, (Sa)-6-(1-((R) or (S)-1-(3′-cyano-5′-methoxy-[1,1′-biphenyl]-4-yl)-ethyl)-1H-indazole-7-carboxamido)spiro[3.3]heptane-2-carboxylic acid]	< 25	< 1
CC(c1ccc(-c2ccccc2)cc1)n1ccc2c(F)ccc(C(=O)NC3CC4(C3)CC(C(=O)O)C4)c21 (single isomer, unassigned) [Example 127, (Sa)-6-(1-((R) or (S)-1-([1,1′-biphenyl]-4-yl)-ethyl)-4-fluoro-1H-indole-7-carboxamido)spiro[3.3]heptane-2-carboxylic acid]	< 25	1.2
COc1cccc(-c2ccc(C(C)n3ccc4c(F)ccc(C(=O)NC5CC6(C5)CC(C(=O)O)C6)c43)cc2)c1 (single isomer, unassigned) [Example 128, (Sa)-6-(4-fluoro-1-((R) or (S)-1-(3′-methoxy-[1,1′-biphenyl]-4-yl)-ethyl)-1H-indole-7-carboxamido)spiro[3.3]heptane-2-carboxylic acid]	< 25	1.9
CCOc1cc(-c2ccc(C(C)n3ccc4c(F)ccc(C(=O)NC5CC6(C5)CC(C(=O)O)C6)c43)cc2)ccn1 (single isomer, unassigned) [Example 129, (Sa)-6-(1-((R) or (S)-1-(4-(2-ethoxypyridin-4-yl)phenyl)-ethyl)-4-fluoro-1H-indole-7-carboxamido)spiro[3.3]heptane-2-carboxylic acid]	61	3
CCOc1cc(-c2ccc(C(C)n3ncc4c(Cl)ccc(C(=O)NC5CC6(C5)CC(C(=O)O)C6)c43)cc2)ccn1 (single isomer, unassigned) [Example 131, (Sa)-6-(4-chloro-1-((R) or (S)-1-(4-(2-ethoxypyridin-4-yl)phenyl)-ethyl)-1H-indazole-7-carboxamido)spiro[3.3]heptane-2-carboxylic acid]	< 25	< 1
CC(c1ccc(N2C[C@H]3C[C@H]3C2)cc1)n1ncc2c(Cl)ccc(C(=O)NC3CC4(C3)CC(C(=O)O)C4)c21 (single isomer, unassigned) [Example 132, (Sa)-6-(1-((R) or (S)-1-(4-((1R, 5S)-3-azabicyclo[3.1.0]hexan-3-yl)phenyl)ethyl)-4-chloro-1H-indazole-7-carboxamido)spiro[3.3]heptane-2-carboxylic acid]	< 25	2.2
CN(C)c1cc(-c2ccc(Cn3ccc4c(F)ccc(C(=O)NC5CC6(C5)CC(C(=O)O)C6)c43)cc2)ccn1 (stereo not drawn) [Example 22, 6-(1-(4-(2-(dimethylamino)pyridin-4-yl)benzyl)-4-fluoro-1H-indole-7-carboxamido)spiro[3.3]heptane-2-carboxylic acid]	78	< 1
O=C(NC1CC2(C1)CC(C(=O)O)C2)c1ccc(F)c2ccn(Cc3ccc4cc(F)ccc4c3)c12 (stereo not drawn) [Example 37, (Sa)-6-(4-fluoro-1-((6-fluoronaphthalen-2-yl)methyl)-1H-indole-7-carboxamido)spiro[3.3]heptane-2-carboxylic acid]	70	< 1
O=C(NC1CC2(C1)CC(C(=O)O)C2)c1ccc(Cl)c2ccn(Cc3ccc(-c4ccncc4)cc3)c12 (stereo not drawn) [Example 67, (Sa)-6-(4-Chloro-1-(4-(pyridin-4-yl)benzyl)-1H-indole-7-carboxamido)spiro[3.3]heptane-2-carboxylic acid]	–	6.6
N#Cc1ccc(-c2ccc(Cn3ncc4c(Cl)ccc(C(=O)NC5CC6(CC(CC(=O)O)C6)C5)c43)cc2)cc1 (stereo not drawn) [Example 145, (Ra)-2-(6-(4-Chloro-1-((4′-cyano-[1,1′-biphenyl]-4-yl)methyl)-1H-indazole-7-carboxamido)spiro[3.3]heptan-2-yl)acetic acid]	–	< 1
